US20130280258A1, “PROGNOSTIC, DIAGNOSTIC, AND CANCER THERAPEUTIC USES OF FANCI AND FANCI MODULATING AGENTS” (Miltenyi Biotec GmbH, priority 2007, published 2013)

Tested on: U2OS cells
Assay: Multicolor competition assay (MCA) of DNA damage sensitivity
Type: cell-based
Conditions: 7 days of culture, read-out: concentration resulting in about 50% survival of non-transfected cells
Method: U2OS cells were infected with MSCVgfp or MSCVdsRed, which were packaged in 293T by co-transfection with VSVG vector using TransIT-293 (Minis). Without selection, the cells were sorted using the Aria Sorter (BD) for intermediate expression. The gfp cells grew slightly faster than the rfp cells and this was taken into account when calculating the changes in survival due to treatment with DNA damaging agents. siRNA transfections were performed as described above with gfp cells being transfected with a control siRNA (luciferase) and rfp cells with an siRNA of interest. On the third day after transfections, gfp and rfp cells were counted and mixed in 1 to 1 ratio and were left untreated or were treated with IR or MMC. The concentration of Mitomycin C (Sigma) was chosen to result in about 50% survival of non-transfected cells, which was about 70 nM MMC for U2OS cells. After 7 days of culture, all cells were collected and analyzed using Cytomix FC500 Analyzer (Beckman Coulter). […]
Two populations of U20S (osteosarcoma) cells differing only in their color were created by expression of red fluorescent protein (RFP) or green fluorescent protein (GFP). siRNA depletion of the protein of interest was carried out in the […] were transfected with control siRNA. […] After 7 days, cells were harvested and a ratio of red to green cells was determined using flow cytometry. […]

Compound: CO[C@@]12[C@H](COC(N)=O)C3=C(C(=O)C(C)=C(N)C3=O)N1C[C@@H]1N[C@@H]12 [Mitomycin C]
- IC50: ~70 nM
